# Test system: MDA-MB-468 cells
# Assay: Cell growth of MDA-MB-468 breast carcinoma cells
# Assay type: cell-based, human
# Method: FIG. 6: Src and JAK Inhibitors Block Growth and STAT3 Activation in Breast Carcinoma Cells. MDA-MD-468 cells are treated with inhibitors of EGF receptor (PD158780), Src (PD180970), or JAKs (AG490), and effects on cell growth (Panel A) and STAT3 DNA-binding activity (Panel B) are determined.
# The involvement of these, and other, tyrosine kinases in STAT3 activation is tested using specific inhibitors of JAK family kinases, and the EGF receptor and Src family kinases.
compound,measurement,value
N#C/C(=C\c1ccc(O)c(O)c1)C(=O)NCc1ccccc1 [AG490],cell growth,inhibition of cell growth

# From patent publication US9345682B2, “Inhibition of STAT3 signal transduction for human cancer therapy” (University of South Florida, priority 1999, dated 2016)
